# Results as given in ChEMBL document CHEMBL1132088, “Three-dimensional structure-function relationship of vitamin D: side chain location and various activities” (1999).
# What was measured:
# [1] = tested on: Rattus norvegicus; assay: In vivo calcemic activity expressed as relative activity for Bone calcium mobilization (BCM) in vitamin D deficient rats
# [2] = tested on: Rattus norvegicus; assay: In vivo calcemic activity expressed as relative activity for Intestinal calcium transport (ICA) in vitamin D deficient rats
# [3] = tested on: Keratinocyte cell line; assay: In vitro activity expressed as relative activity to inhibit the proliferation of primary cultures of human foreskin keratinocytes by measuring [3H]thymidine incorporation
# [4] = target: T1, Vitamin D3 receptor (Sus scrofa) (UniProt A3RGC1); assay: (§1) Affinity for porcine Vitamin D3 receptor; set-up: reference not given here
# T1 sequence (whole entry): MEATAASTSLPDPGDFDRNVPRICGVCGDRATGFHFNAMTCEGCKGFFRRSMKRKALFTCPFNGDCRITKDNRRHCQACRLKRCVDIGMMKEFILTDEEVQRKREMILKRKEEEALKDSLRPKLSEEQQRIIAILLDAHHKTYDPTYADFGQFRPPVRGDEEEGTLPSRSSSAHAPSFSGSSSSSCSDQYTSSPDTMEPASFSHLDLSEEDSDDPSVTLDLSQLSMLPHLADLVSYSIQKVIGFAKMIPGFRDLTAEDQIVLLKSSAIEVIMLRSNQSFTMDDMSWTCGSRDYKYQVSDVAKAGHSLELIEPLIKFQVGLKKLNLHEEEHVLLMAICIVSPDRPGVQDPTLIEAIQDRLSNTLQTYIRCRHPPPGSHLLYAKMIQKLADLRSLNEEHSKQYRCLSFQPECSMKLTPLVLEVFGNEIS
# [5] = tested on: MCF7; assay: In vitro activity expressed as relative activity to inhibit the proliferation of human breast cancer cells (MCF-7) by measuring [3H]thymidine incorporation
# [6] = target: T2, Vitamin D3 receptor (Bos taurus) (UniProt Q28037); assay: Affinity for bovine Vitamin D3 receptor; set-up: reference not given here
# T2 sequence (whole entry): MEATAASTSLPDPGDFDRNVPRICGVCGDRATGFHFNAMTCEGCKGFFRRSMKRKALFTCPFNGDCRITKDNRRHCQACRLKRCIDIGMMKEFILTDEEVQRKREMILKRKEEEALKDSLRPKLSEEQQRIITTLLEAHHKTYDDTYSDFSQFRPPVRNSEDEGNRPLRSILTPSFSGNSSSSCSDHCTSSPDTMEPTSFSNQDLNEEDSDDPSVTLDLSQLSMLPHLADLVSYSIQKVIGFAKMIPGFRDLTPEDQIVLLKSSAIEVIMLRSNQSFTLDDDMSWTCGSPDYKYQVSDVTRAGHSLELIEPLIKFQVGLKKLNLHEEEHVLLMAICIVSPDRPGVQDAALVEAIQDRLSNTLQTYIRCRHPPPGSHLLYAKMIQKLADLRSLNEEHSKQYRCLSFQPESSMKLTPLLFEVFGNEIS
# [7] = Gene transcriptional activity against osteopontin (OPN); type: functional
# [8] = target: T3, Vitamin D-binding protein (Rattus norvegicus) (UniProt P04276); assay: Binding affinity for rat Vitamin D binding protein; set-up: reference not given here
# T3 sequence (whole entry): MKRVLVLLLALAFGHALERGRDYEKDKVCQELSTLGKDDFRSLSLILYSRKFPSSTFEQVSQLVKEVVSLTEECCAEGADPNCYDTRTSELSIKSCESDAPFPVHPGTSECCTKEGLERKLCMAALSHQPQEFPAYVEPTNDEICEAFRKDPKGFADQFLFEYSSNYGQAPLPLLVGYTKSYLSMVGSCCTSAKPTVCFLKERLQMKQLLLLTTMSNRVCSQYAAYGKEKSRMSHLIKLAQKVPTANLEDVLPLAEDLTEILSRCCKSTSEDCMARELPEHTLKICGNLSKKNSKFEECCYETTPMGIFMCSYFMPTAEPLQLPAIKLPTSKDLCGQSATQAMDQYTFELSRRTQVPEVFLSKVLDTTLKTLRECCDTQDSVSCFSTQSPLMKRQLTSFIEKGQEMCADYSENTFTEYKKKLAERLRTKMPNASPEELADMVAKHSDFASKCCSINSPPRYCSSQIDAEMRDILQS
# [9] = tested on: HL-60; assay: In vitro activity expressed as relative activity to induce the differentiation of human promyelocytic leukemia (HL-60) cells by NBT reduction assay
# [10] = tested on: MCF7; assay: In vitro activity expressed as relative activity to inhibit the proliferation of human breast cancer cells (MCF-7) by measuring [3H]thymidine incorporation; remark: listed apart in the source
# [11] = target: T1, Vitamin D3 receptor (Sus scrofa); assay: as §1
# [12] = tested on: Keratinocyte cell line; assay: In vitro activity expressed as relative activity to inhibit the proliferation of primary cultures of human foreskin keratinocytes by measuring [3H]thymidine incorporation; remark: listed apart in the source
Activity [4],Activity [6],Activity [8],Activity [11],SMILES,relative activity [1] [%],relative activity [2] [%],relative activity [3] [%],relative activity [5] [%],relative activity [7] [%],relative activity [9] [%],relative activity [10] [%],relative activity [12] [%]
2000,1100,< 0.25,–,C=C1/C(=C\C=C2/CCC[C@]3(C)[C@@H]([C@@H](C)[C@H](C)CCC(C)(C)O)CC[C@@H]23)C[C@@H](O)C[C@@H]1O,220,51,9000,15000,10000,12000,–,–
1.7,2,0.45,–,C=C1/C(=C\C=C2/CCC[C@]3(C)[C@@H]([C@H](C)[C@H](C)CCC(C)(C)O)CC[C@@H]23)C[C@@H](O)C[C@@H]1O,32,25,–,–,1,1.3,–,–
1,0.4,< 0.25,–,C=C1/C(=C\C=C2/CCC[C@]3(C)[C@@H]([C@@H](C)[C@@H](C)CCC(C)(C)O)CC[C@@H]23)C[C@@H](O)C[C@@H]1O,5,< 1,60,–,3,8,70,–
33,33,67,–,C=C1/C(=C\C=C2/CCC[C@]3(C)[C@@H]([C@H](C)[C@@H](C)CCC(C)(C)O)CC[C@@H]23)C[C@@H](O)C[C@@H]1O,26,50,–,–,22,100,–,–
–,–,4000,500,C=C1/C(=C\C=C2/CCC[C@]3(C)[C@@H]([C@@H](C)CCCC(C)(C)O)CC[C@@H]23)C[C@@H](O)C[C@@H]1O,–,–,–,–,–,–,–,–
100,100,100,–,C=C1/C(=C\C=C2/CCC[C@]3(C)[C@@H]([C@H](C)CCCC(C)(C)O)CC[C@@H]23)C[C@@H](O)C[C@@H]1O [CALCITRIOL],100,100,–,–,100,100,100,100
